From PubChem BioAssay (NCI)
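Values below derive from 48-hour exposures of cells grown in 96-well plates, with endpoints linearly interpolated between the two concentrations bracketing the appropriate inhibition level. The concentration for full growth arrest is given as TGI.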

Legend:
Assay in all cases: NCI tumour cell line growth inhibition, 48 h
DU-145 prostate = system: DU-145 prostate
HCT-116 colon = system: HCT-116 colon
IGROV1 ovarian = system: IGROV1 ovarian
KM12 colon = system: KM12 colon
OVCAR-4 ovarian = system: OVCAR-4 ovarian
OVCAR-8 ovarian = system: OVCAR-8 ovarian
SN12C renal = system: SN12C renal
SNB-75 CNS = system: SNB-75 CNS
T-47D breast = system: T-47D breast
UACC-257 melanoma = system: UACC-257 melanoma

Structure (SMILES)	TGI (DU-145 prostate) [µM]	TGI (HCT-116 colon) [µM]	TGI (IGROV1 ovarian) [µM]	TGI (KM12 colon) [µM]	TGI (OVCAR-4 ovarian) [µM]	TGI (OVCAR-8 ovarian) [µM]	TGI (SN12C renal) [µM]	TGI (SNB-75 CNS) [µM]	TGI (T-47D breast) [µM]	TGI (UACC-257 melanoma) [µM]
CN(C)C(=S)S	> 100	> 59.9	> 100	> 100	> 100	> 100	> 100	> 100	> 100	> 100
O=C1C[C@H](Sc2ccccc2)C2(OCCO2)[C@@H](Sc2ccccc2)C1	14.1	4.81	3.49	7.36	28.4	8.02	10.6	26	> 43.5	4.51
O=C(NCCCN(CCCCN(CCCNC(=O)C(F)(F)F)Cc1ccccc1)Cc1ccccc1)C(F)(F)F	56.2	23.6	26.2	25.9	68.1	26.9	36.5	27.9	40.6	16.9
